In patent US20100015164A1, “Compositions and Methods for Modulating Osteoblast Cell Differentiation and Bone Generation Through HIF-1a” (THE UAB RESEARCH FOUNDATION, priority 2005, published 2010):
Entries after “also recorded” stand apart in the source; their conditions may differ.

Assays:
HIF-1α [1] = assay: Western blotting of nuclear protein for HIF-1α in primary osteoblasts exposed to cobalt; format: cell-based, mouse; conditions: primary osteoblast cultures; 5, 10, or 50 ng/ml cobalt; 0, 3, 6, 12, and 24 hours of exposure
Text: The class of PHDs acting on HIF-1α require oxygen, iron, and 2-oxyglutarate as co-factors. Small molecules that block these enzymes are iron chelators, such as cobalt and desferrioxamine, or 2-oxyglutarate analogs such as L-mimosinc and 3,4 DHB, and DMOG. A schematic of the PHD enzyme and the structures of the 2-oxyglutarate analogs is reproduced in FIG. 5. A number of previous studies have shown an increase of VEGF and other HIF-1α target genes in cells treated with the small molecule PHD inhibitors selected here. Because the effects of the PHD inhibiting agents have not been tested in primary osteoblasts, studies were performed to evaluate their ability to increase HIF-1α. Osteoblasts were grown to near confluence, and then exposed to varying concentrations of cobalt chloride. At time zero, and after 3, 6, 12, and 24 hours of exposure, the cells were harvested and nuclear protein was extracted.

HIF-1α [2] = conditions: in vitro and in vivo, published studies; cited from earlier work
VEGF = VEGF mRNA expression by real time PCR in osteoblasts exposed to cobalt chloride; format: cell-based, mouse; conditions: 5, 10, or 50 ng/mL cobalt chloride, 3, 12, or 24 hours
Method: The osteoblasts were exposed to 5, 10, or 50 ng/mL of cobalt chloride. After, 3, 12, or 24 hours, cells were harvested and mRNA was collected. Real time PCR was performed with β-actin as control. […] Additionally, they lend support to the approach of using VEGF upregulation as assessed by real time PCR as a surrogate for HIF-1α activation in initial screening rather than the more time consuming approach of western blotting for HIF-1α.

Row | Compound | nuclear HIF-1α (Western blot of nuclear extracts) (HIF-1α [1]) | HIF-1α activation (HIF-1α [2]) | VEGF mRNA expression (real time PCR, β-actin as control) (VEGF) | VEGF mRNA expression (real time PCR, β-actin as control) (VEGF; listed as cobalt)
1 | [Cl][Co][Cl] [cobalt chloride] | time and dose dependent increase in nuclear HIF-1α; also recorded: increased nuclear accumulation after cobalt treatment at all doses | increase HIF-1α activation in vitro and in vivo | Marked upregulation of VEGF expression | Marked upregulation of VEGF was seen after 12 and 24 hours
2 | CC(=O)N(O)CCCCCNC(=O)CCC(=O)N(O)CCCCCNC(=O)CCC(=O)N(O)CCCCCN [desferrioxamine] | – | increase HIF-1α activation in vitro and in vivo | – | –
